What was measured:
Y92A = target: T1, Y92A (Coprinopsis cinerea, UniProt B3GA02, Y92A); test: biochemical; assay type: binding
T1 construct: gene ccl2

Y57A = target: T2, Y57A (Coprinopsis cinerea, UniProt B3GA02, Y57A); test: biochemical; assay type: binding
T2 construct: gene ccl2

W94A = target: T3, W94A (Coprinopsis cinerea, UniProt B3GA02, W94A); test: biochemical; assay type: binding
T3 construct: gene ccl2

L87A = target: T4, L87A (Coprinopsis cinerea, UniProt B3GA02, L87A); test: biochemical; assay type: binding
T4 construct: gene ccl2
T4 sequence (B3GA02 2-142 L87A limits assumed): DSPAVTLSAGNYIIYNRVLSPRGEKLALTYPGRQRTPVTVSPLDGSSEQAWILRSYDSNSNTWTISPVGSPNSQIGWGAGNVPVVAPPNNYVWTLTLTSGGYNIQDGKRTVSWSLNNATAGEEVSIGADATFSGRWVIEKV

N90A = target: T5, N90A (Coprinopsis cinerea, UniProt B3GA02, N90A); test: biochemical; assay type: binding
T5 construct: gene ccl2
T5 sequence (B3GA02 2-142 N90A limits assumed): as the sequence (B3GA02 2-142 L87A limits assumed) above, with A86L, N89A counted along it

W78A = target: T6, W78A (Coprinopsis cinerea, UniProt B3GA02, W78A); test: biochemical; assay type: binding
T6 construct: gene ccl2
T6 sequence (B3GA02 2-142 W78A limits assumed): as the sequence (B3GA02 2-142 L87A limits assumed) above, with W77A, A86L counted along it

V93A = target: T7, V93A (Coprinopsis cinerea, UniProt B3GA02, V93A); test: biochemical; assay type: binding
T7 construct: gene ccl2
T7 sequence (B3GA02 2-142 V93A limits assumed): as the sequence (B3GA02 2-142 L87A limits assumed) above, with A86L, V92A counted along it

K109A = target: T8, K109A (Coprinopsis cinerea, UniProt B3GA02, K109A); test: biochemical; assay type: binding
T8 construct: gene ccl2
T8 sequence (B3GA02 2-142 K109A limits assumed): as the sequence (B3GA02 2-142 L87A limits assumed) above, with A86L, K108A counted along it

N91A = target: T9, N91A (Coprinopsis cinerea, UniProt B3GA02, N91A); test: biochemical; assay type: binding
T9 construct: gene ccl2
T9 sequence (B3GA02 2-142 N91A limits assumed): as the sequence (B3GA02 2-142 L87A limits assumed) above, with A86L, N90A counted along it

C. elegans fut-1(ok892) [1] = test: C. elegans liquid toxicity assay, feeding on recombinant E. coli; assay type: in vivo, Caenorhabditis elegans; settings: fut-1(ok892) mutant
C. elegans fut-1(ok892) [2] = test: CCL2 nematotoxicity assay in solid media; assay type: in vivo, Caenorhabditis elegans
C. elegans bre-1(ye4) = test: C. elegans liquid toxicity assay, feeding on recombinant E. coli; assay type: in vivo, Caenorhabditis elegans; settings: bre-1(ye4) mutant, vs vector control
[3] = Isothermal titration calorimetry, CCL2 wild type and variants binding to fucosylated chitobiose
Method: ITC experiments were performed on a VP-ITC instrument (MicroCal). The calorimeter was calibrated according to the manufacturer's instructions. Protein and carbohydrate samples were dialyzed against NMR buffer at room temperature using a 3.5 kDa membrane (Spectra/Por) and Micro DispoDialyzer (100 Da cutoff; Harvard Apparatus), respectively. The disaccharide Fucα1,3GlcNAc-OMe was not dialyzed but dissolved in NMR buffer. The sample cell (1.4 mL) was loaded with 70 µM protein; carbohydrate concentration in the syringe was 2–4 mM. A titration experiment typically consisted of 30–50 injections, each of 3 µL volume and 6 s duration, with a 6.7 min interval between additions. Stirring rate was 307 rpm. Raw data were integrated, corrected for nonspecific heats, normalized for the molar concentration, and analyzed according to a 1∶1 binding model.

A. aegypti larvae = test: Biotoxicity assay with recombinant E. coli; assay type: in vivo, Aedes aegypti; settings: CCL2-expressing E. coli vs vector control
[4] = test system: C. elegans fut-6(ok475)fut-1(ok892); test: C. elegans liquid toxicity assay, feeding on recombinant E. coli; assay type: in vivo, Caenorhabditis elegans; settings: fut-6(ok475)fut-1(ok892) double mutant, vs vector control
C. elegans wildtype (N2) = test: as above; assay type: in vivo, Caenorhabditis elegans
D. melanogaster = test: Biotoxicity assay with purified protein added to the rearing medium; assay type: in vivo, Drosophila melanogaster
A. castellanii = test: Biotoxicity assay with recombinant E. coli; assay type: in vivo, Acanthamoeba castellanii; settings: CCL2-expressing E. coli vs vector control
[5] = ITC, 299K, protein binding to GlcNAcβ1,4[Fucα1,3]GlcNAcβ1-sp
[6] = ITC, 299K, protein binding to GlcNAcβ1,4[Fucα1,3]GlcNAcβ1-sp, listed as Wild type
[7] = Table S6, ligand GlcNAc1,4[Fuc1,3]GlcNAc-O-spacer, This study
[8] = purified CCL2, relative to the control (BSA)

T2 sequence (B3GA02 2-142 Y57A limits assumed): as the sequence (B3GA02 2-142 L87A limits assumed) above, with Y56A, A86L counted along it
T3 sequence (B3GA02 2-142 W94A limits assumed): as the sequence (B3GA02 2-142 L87A limits assumed) above, with A86L, W93A counted along it
T1 sequence (B3GA02 2-142 Y92A limits assumed): as the sequence (B3GA02 2-142 L87A limits assumed) above, with A86L, Y91A counted along it

CC(=O)N[C@H]1[C@H](O[C@H]2[C@H](O[C@@H]3O[C@@H](C)[C@@H](O)[C@@H](O)[C@@H]3O)[C@@H](NC(C)=O)[C@H](OCCCCCC(=O)O)O[C@@H]2CO)O[C@H](CO)[C@@H](O)[C@@H]1O [GlcNAcβ1,4[Fucα1,3]GlcNAcβ1-sp, fucosylated chitobiose, GlcNAcβ1,4[Fucα1,3]GlcNAcβ-O(CH2)5COOH]
Kd (Y92A): > 500 µM | Kd (Y57A): 10.9 µM | Kd (W94A): 310 µM | Kd (L87A): 26.3 µM | Kd (N90A): 6.7 µM | Kd (W78A): 62.9 µM | Kd (V93A): 27.2 µM | Kd (K109A): 1.5 µM | Kd (N91A): 0.18 µM

CCL2: novel fruiting body lectin from the ink cap mushroom Coprinopsis cinerea, recombinant, monomeric β-trefoil
larvae reaching L4 stage (C. elegans fut-1(ok892) [1]; after 48 hours): half | susceptibility to CCL2-mediated toxicity (C. elegans fut-1(ok892) [1]; vs vector control): partially resistant | additional time required to reach L4 (C. elegans fut-1(ok892) [2]): at least 24 h | resistance to CCL2 (C. elegans fut-1(ok892) [2]): partial resistance | susceptibility to CCL2-mediated toxicity (C. elegans bre-1(ye4)): not and completely resistant | Kd [3, 5]: 1.4 µM | ΔH [3, 5]: -12 kcal/mol | −TΔS [3, 5]: 3.82 kcal/mol | ΔH [3, 6]: -11.9 kcal/mol | −TΔS [3, 6]: 3.9 kcal/mol | –TΔS [3, 7]: 3.9 kcal/mol | –ΔH [3, 7]: 11.9 kcal/mol | toxicity (A. aegypti larvae): No significant differences | susceptibility to CCL2-mediated toxicity [4]: not and completely resistant | reduction of development of L1 larvae (C. elegans wildtype (N2); 30% of CCL2-expressing E. coli among the fed bacteria): more than 95% | toxicity: development of L1 larvae vs vector control (C. elegans wildtype (N2); N2 fed E. coli expressing the lectin, L4 stage after 48 h): stopped the development of all wildtype (N2) L1 larvae | development of pupae and flies vs control (D. melanogaster; purified CCL2, BSA control): significantly different from the control | delay in development of flies (D. melanogaster; [8]): 10 fold | delay in development of pupae (D. melanogaster; [8]): 4 fold | toxicity (A. castellanii): No significant differences
